Measured values reported in patent US20260166039A1 (SCHRÖDINGER, INC., priority 2022, published 2026).

What follows are molecules tested against T1, Wee1 kinase domain (Homo sapiens, UniProt P30291) (assay: Wee1 Kinase Biochemical Assay (ADP-Glo)). Settings: Wee1 kinase domain, 15 uM ATP, ADP-Glo.
T1 construct: Wee1 kinase domain was purchased from Carna (catalog #05-177); purchased Carna 05-177
Procedure, shortened: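 Kinase domain (1 nM) incubated 4 h at 25 °C with 15 uM ATP and 2 ng/mL Poly(Lys,Tyr 4:1) in 40 mM Tris-HCl, 20 mM MgCl2, 0.1 mg/mL BSA, 2 mM DTT. ADP formation read by ADP-Glo luminescence; percent inhibition normalized to DMSO and saturating reference-inhibitor controls.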

T1 sequence (P30291 299-569 limits assumed): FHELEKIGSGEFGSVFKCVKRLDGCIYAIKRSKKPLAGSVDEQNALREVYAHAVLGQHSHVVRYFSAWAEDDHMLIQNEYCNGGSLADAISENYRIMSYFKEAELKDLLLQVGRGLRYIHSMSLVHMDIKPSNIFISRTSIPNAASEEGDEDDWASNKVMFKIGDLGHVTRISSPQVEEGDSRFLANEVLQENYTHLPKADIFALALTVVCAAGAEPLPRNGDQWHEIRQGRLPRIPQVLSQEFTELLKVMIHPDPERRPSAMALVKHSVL

Compound | IC50
C[C@H]1COC(=O)N1c1cccc(N2c3nc(Nc4ccc(C(C)(C)C)nc4)ncc3[C@]3(C)COC(C)(C)C[C@H]23)n1 (single isomer, unassigned) [Example 300] | 100 to 1000 nM
C[C@H]1COC(=O)N1c1cccc(N2c3nc(Nc4ccc(C5(C)COC5)cc4)ncc3[C@]3(C)COC(C)(C)C[C@H]23)n1 (single isomer, unassigned) [Example 302] | 100 to 1000 nM
CN[C@@H]1CCN(c2ccc(Nc3ncc4c(n3)N(c3cccc(N5C(=O)OC[C@@H]5C)n3)[C@H]3CC(C)(C)OC[C@@]43C)cc2)C1 (single isomer, unassigned) [Example 318] | 10 to 100 nM
CN[C@@H](Cc1ccc(Nc2ncc3c(n2)N(c2cccc(N4C(=O)OC[C@@H]4C)n2)[C@H]2CC(C)(C)OC[C@@]32C)cc1)C(=O)O (single isomer, unassigned) [Example 320] | 100 to 1000 nM
CN[C@H](Cc1ccc(Nc2ncc3c(n2)N(c2cccc(N4C(=O)OC[C@@H]4C)n2)[C@H]2CC(C)(C)OC[C@@]32C)cc1)C(=O)O (single isomer, unassigned) [Example 322] | 100 to 1000 nM
C[C@H]1COC(=O)N1c1cccc(N2c3nc(Nc4ccc(OC5CCNCC5)nc4)ncc3[C@]3(C)COC(C)(C)C[C@H]23)n1 (single isomer, unassigned) [Example 324] | 100 to 1000 nM
C[C@H]1COC(=O)N1c1cccc(N2c3nc(Nc4ccc(O[C@@H]5CCNC5)cc4)ncc3[C@]3(C)COC(C)(C)C[C@H]23)n1 (single isomer, unassigned) [Example 326] | 10 to 100 nM
C[C@H]1COC(=O)N1c1cccc(N2c3nc(Nc4ccc(O[C@H]5CCNC5)cc4)ncc3[C@]3(C)COC(C)(C)C[C@H]23)n1 (single isomer, unassigned) [Example 328] | 100 to 1000 nM
C[C@H]1COC(=O)N1c1cccc(N2c3nc(Nc4ccc(O[C@@H]5CCN(C)C5)cc4)ncc3[C@]3(C)COC(C)(C)C[C@H]23)n1 (single isomer, unassigned) [Example 330] | 10 to 100 nM
C[C@H]1COC(=O)N1c1cccc(N2c3nc(Nc4ccc(O[C@H]5CCN(C)C5)cc4)ncc3[C@]3(C)COC(C)(C)C[C@H]23)n1 (single isomer, unassigned) [Example 332] | 10 to 100 nM
C[C@H]1COC(=O)N1c1cccc(N2c3nc(Nc4ccc(OC5CCN(C)CC5)nc4)ncc3[C@]3(C)COC(C)(C)C[C@H]23)n1 (single isomer, unassigned) [Example 334] | 100 to 1000 nM
Cc1cc(Nc2ncc3c(n2)N(c2cccc(N4C(=O)OC[C@@H]4C)n2)[C@H]2CC(C)(C)OC[C@@]32C)ccc1O[C@@H]1CCNC1 (single isomer, unassigned) [Example 336] | 10 to 100 nM
Cc1cc(Nc2ncc3c(n2)N(c2cccc(N4C(=O)OC[C@@H]4C)n2)[C@H]2CC(C)(C)OC[C@@]32C)ccc1O[C@H]1CCNC1 (single isomer, unassigned) [Example 338] | 10 to 100 nM
C[C@H]1COC(=O)N1c1cccc(N2c3nc(Nc4ccn(C)c(=O)c4)ncc3[C@]3(C)COC(C)(C)C[C@H]23)n1 (single isomer, unassigned) [Example 340] | 100 to 1000 nM
C[C@H]1COC(=O)N1c1cccc(N2c3nc(Nc4ccc(OC5CNC5)nc4)ncc3[C@]3(C)COC(C)(C)C[C@H]23)n1 (single isomer, unassigned) [Example 342] | 100 to 1000 nM
Cc1cc(Nc2ncc3c(n2)N(c2cccc(N4C(=O)OC[C@@H]4C)n2)[C@H]2CC(C)(C)OC[C@@]32C)ccc1O[C@H]1CCN(C)C1 (single isomer, unassigned) [Example 344] | 10 to 100 nM
Cc1cc(Nc2ncc3c(n2)N(c2cccc(N4C(=O)OC[C@@H]4C)n2)[C@H]2CC(C)(C)OC[C@@]32C)ccc1O[C@@H]1CCN(C)C1 (single isomer, unassigned) [Example 346] | 10 to 100 nM
C[C@H]1COC(=O)N1c1cccc(N2c3nc(Nc4ccc([C@@]5(C)CCN(C)C5)cc4)ncc3[C@]3(C)COC(C)(C)C[C@H]23)n1 (single isomer, unassigned) [Example 348] | 10 to 100 nM
C[C@H]1COC(=O)N1c1cccc(N2c3nc(Nc4ccc([C@]5(C)CCN(C)C5)cc4)ncc3[C@]3(C)COC(C)(C)C[C@H]23)n1 (single isomer, unassigned) [Example 350] | 10 to 100 nM
C[C@H]1COC(=O)N1c1cccc(N2c3nc(Nc4ccc(N5C[C@H]6C[C@@H](C5)N6C)cc4)ncc3[C@]3(C)COC(C)(C)C[C@H]23)n1 (single isomer, unassigned) [Example 353] | 10 to 100 nM
C[C@H]1COC(=O)N1c1cccc(N2c3nc(Nc4ccc(N5CC6(CN(C)C6)C5)cc4)ncc3[C@]3(C)COC(C)(C)C[C@H]23)n1 (single isomer, unassigned) [Example 354] | 10 to 100 nM
C[C@H]1COC(=O)N1c1cccc(N2c3nc(N)ncc3[C@@]3(C)COC(C)(C)C[C@@H]23)n1 (single isomer, unassigned) [Example 356] | 10 to 100 nM
C[C@H]1COC(=O)N1c1cccc(N2c3nc(N)ncc3[C@]3(C)COC(C)(C)C[C@H]23)n1 (single isomer, unassigned) [Example 357] | 100 to 1000 nM
CNCc1ccc(Nc2ncc3c(n2)N(c2cccc(N4C(=O)OC[C@@H]4C)n2)[C@H]2CC(C)(C)OC[C@@]32C)cc1 (single isomer, unassigned) [Example 359] | 10 to 100 nM
CC1(C)C[C@H]2N(c3cccc(N=S(C)(C)=O)n3)c3nc(Nc4ncccc4F)ncc3[C@@]2(C)CO1 (single isomer, unassigned) [Example 368] | 10 to 100 nM
CC1(C)C[C@H]2N(c3cccc(N=S(C)(C)=O)n3)c3nc(Nc4cn5ccnc5cn4)ncc3[C@@]2(C)CO1 (single isomer, unassigned) [Example 382] | 10 to 100 nM
CC(=O)Nc1ncc2c(n1)N(c1cccc(N=S(C)(C)=O)n1)[C@@H]1CC(C)(C)OC[C@]21C (single isomer, unassigned) [Example 398] | 10 to 100 nM

The next lines start with the values.

IC50 | Compound
10 to 100 nM | C[C@H]1COC(=O)N1c1cccc(N2c3nc(Nc4ccc(N5CCCN(C)CC5)cc4)ncc3[C@]3(C)COC(C)(C)C[C@H]23)n1 (single isomer, unassigned) [Example 298]
10 to 100 nM | C[C@H]1COC(=O)N1c1cccc(N2c3nc(Nc4ccc([C@@H]5CCN(C)C5)cc4)ncc3[C@]3(C)COC(C)(C)C[C@H]23)n1 (single isomer, unassigned) [Example 304]
< 10 nM | C[C@H]1COC(=O)N1c1cccc(N2c3nc(Nc4ccc([C@H]5CCN(C)C5)cc4)ncc3[C@]3(C)COC(C)(C)C[C@H]23)n1 (single isomer, unassigned) [Example 307]
10 to 100 nM | C[C@H]1COC(=O)N1c1cccc(N2c3nc(Nc4ccc(C5CNC5)cc4)ncc3[C@]3(C)COC(C)(C)C[C@H]23)n1 (single isomer, unassigned) [Example 308]
10 to 100 nM | C[C@H]1COC(=O)N1c1cccc(N2c3nc(Nc4ccc(C5CN(C)C5)cc4)ncc3[C@]3(C)COC(C)(C)C[C@H]23)n1 (single isomer, unassigned) [Example 309]
10 to 100 nM | C[C@@H]1CN(c2ccc(Nc3ncc4c(n3)N(c3cccc(N5C(=O)OC[C@@H]5C)n3)[C@H]3CC(C)(C)OC[C@@]43C)cc2)CCN1C (single isomer, unassigned) [Example 312]
10 to 100 nM | C[C@H]1CN(c2ccc(Nc3ncc4c(n3)N(c3cccc(N5C(=O)OC[C@@H]5C)n3)[C@H]3CC(C)(C)OC[C@@]43C)cc2)CCN1C (single isomer, unassigned) [Example 314]
10 to 100 nM | CN[C@H]1CCN(c2ccc(Nc3ncc4c(n3)N(c3cccc(N5C(=O)OC[C@@H]5C)n3)[C@H]3CC(C)(C)OC[C@@]43C)cc2)C1 (single isomer, unassigned) [Example 316]
< 10 nM | CC1(C)C[C@H]2N(c3cccc(N=S(C)(C)=O)n3)c3nc(Nc4ccc5cnnn5c4)ncc3[C@@]2(C)CO1 (single isomer, unassigned) [Example 362]
< 10 nM | CC1(C)C[C@H]2N(c3cccc(N=S(C)(C)=O)n3)c3nc(Nc4ccc5cnoc5c4)ncc3[C@@]2(C)CO1 (single isomer, unassigned) [Example 381]
< 10 nM | Cn1ccc2nc(Nc3ncc4c(n3)N(c3cccc(N=S(C)(C)=O)n3)[C@@H]3CC(C)(C)OC[C@]43C)cnc21 (single isomer, unassigned) [Example 383]
< 10 nM | CC1(C)C[C@H]2N(c3cccc(N=S(C)(C)=O)n3)c3nc(Nc4ccc5ncnn5c4)ncc3[C@@]2(C)CO1 (single isomer, unassigned) [Example 384]
< 10 nM | CC1(C)C[C@H]2N(c3cccc(N=S(C)(C)=O)n3)c3nc(Nc4ccn5ncnc5c4)ncc3[C@@]2(C)CO1 (single isomer, unassigned) [Example 385]
< 10 nM | CC1(C)C[C@H]2N(c3cccc([C@@H]4CCCN4)n3)c3nc(Nc4ccn(C5CCOCC5)c(=O)c4)ncc3[C@@]2(C)CO1 (single isomer, unassigned) [Example 392]

Same assay, conditions: class symbols; 1 nM Wee1 enzyme, 15 uM ATP, 4 hours at 25° C.

IC50 | Compound
10 to 100 nM | CC1(C)C[C@H]2N(c3cccc(N=S(C)(C)=O)n3)c3nc(NC(=O)c4ccccc4)ncc3[C@@]2(C)CO1 (single isomer, unassigned) [Example 404]
10 to 100 nM | CC1(C)C[C@H]2N(c3cccc(N=S(C)(C)=O)n3)c3nc(NC(=O)c4cccnc4)ncc3[C@@]2(C)CO1 (single isomer, unassigned) [Example 405]
10 to 100 nM | CC1(C)C[C@H]2N(c3cccc(N=S(C)(C)=O)n3)c3nc(NC(=O)c4ccccn4)ncc3[C@@]2(C)CO1 (single isomer, unassigned) [Example 407]
100 to 1000 nM | CC1(C)C[C@H]2N(c3cccc(N=S(C)(C)=O)n3)c3nc(NC(=O)c4ccccc4F)ncc3[C@@]2(C)CO1 (single isomer, unassigned) [Example 409]
10 to 100 nM | CC1(C)C[C@H]2N(c3cccc(N=S(C)(C)=O)n3)c3nc(NC(=O)C4(F)CC4)ncc3[C@@]2(C)CO1 (single isomer, unassigned) [Example 410]
